According to the supplement of paper PMC3974653:
Where a name gives a salt, the structure may show the parent alone.

Tested on: MTT (mouse pheochromocytoma)
Assay: IC50 of cell viability (ATP content)
Conditions: (24 or 48 h)
Summary of the method: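 Library compounds were tested at 8 final concentrations (0.5 nM to 46 µM) on MTT mouse pheochromocytoma cells for 24 or 48 hrs, with readout by CellTiter-Glo ATP luminescence. Signals were normalised with positive-control wells at 100% and DMSO wells at 0%. IC50 values were obtained by a four-parameter logistic fit.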

Compound | IC50 of cell viability [µM]
CC(C(=O)O)c1ccc(CC2CCCC2=O)cc1 (stereo not drawn) [loxoprofen] | > 46
CCOc1ccc2nc([S+](N)(=O)[O-])sc2c1 [ETHOXZOLAMIDE] | > 46
CN(C)\C1=C(/C)N(C)N(C2=CC=CC=C2)C1=O [4-Dimethylaminoantipyrine] | > 46
CC(=O)[C@H]1CC[C@H]2[C@@H]3CC[C@H]4C[C@H](O)CC[C@]4(C)[C@H]3C(=O)C[C@]12C [5alpha-Pregnan-3alpha-ol-11,20-dione] | > 46
NCC1O[C@@H](O[C@@H]2C(O)[C@H](O[C@H]3OC(CO)C(O)C(N)C3O)[C@@H](N)C[C@H]2N)C(N)C(O)C1O.O=[S+]([O-])(O)O (stereo partly drawn) [BEKANAMYCIN SULFATE] | > 46
CC[N+](C)(CC)CCOC(=O)C(O)(c1ccccc1)C1CCCCC1 (stereo not drawn) [OXYPHENONIUM BROMIDE] | > 46
O=C(O)c1cc(-c2ccc(F)cc2F)ccc1O [Diflunisal] | > 46
OCC(O)COc1ccc(Cl)cc1 (stereo not drawn) [3-(4-CHLOROPHENOXY)-1,2-PROPANEDIOL] | > 46
O=C(O)CCC(=O)C(=O)O [2-Oxopentanedioic acid] | > 46
OC[C@@H]1O[C@@](CO)(OC2O[C@H](CO)[C@@H](O)[C@H](O)[C@@H]2O)[C@@H](O)[C@@H]1O (stereo partly drawn) [Sucralox] | > 46
COC1/C=C/O[C@@]2(C)Oc3c(C)c(O)c4c(O)c(c(C=NN5CCN(C)CC5)c(O)c4c3C2=O)NC(=O)C(C)=C/C=C/C(C)C(O)[C@@H](C)C(O)C(C)[C@H](OC(C)=O)C1C (stereo partly drawn) [RIFAMPIN] | > 46
Cc1cccc(Cc2c[nH]cn2)c1C [Detomidine] | > 46
CCOC(=O)COc1ccc2c(C)c(CC[NH+](CC)CC)c(=O)oc2c1 [Chromonar hydrochloride] | > 46
CC(=O)[C@H]1CC[C@H]2C3CC=C4C[C@@H](O)CC[C@]4(C)C3CC[C@]12C (stereo partly drawn) [Pregnenolona] | > 46
OC(=O)\C1=C\N(C2CC2)C3=CC(=C(F)C=C3C1=O)N4CCNCC4 [Ciprofloxacin hydrochloride] | > 46
CCC(C)(C)c1ccc(O)cc1 [p-tert-Pentylphenol] | > 46
CC(=O)O[C@@H]1C(=O)O[C@H]2[C@@H]1OC(=O)[C@@H]2OC(C)=O [ACEGLATONE] | > 46
CCc1cc(Cl)c(OC)c(C(=O)NC[C@H]2CCCN2CC)c1O [S(-)Eticlopride hydrochloride] | > 46
Nc1ccc([S+](=O)([O-])NCc2ccccc2)cc1 [Benzylsulfamide] | > 46
CC(C)O [2-Propanol] | > 46
NC[C@@H]1O[C@@H](O[C@H]2[C@@H](O)[C@H](O[C@@H]3O[C@@H](CO)[C@H](O)[C@H](N)[C@@H]3O)[C@@H](N)C[C@H]2N)[C@H](O)[C@H](O)[C@@H]1O [Kanamycin A sulfate] | > 46
CCCC(=O)Nc1c(I)cc(I)c(C[C@H](CC)C(=O)O)c1I [TYROPANOATE SODIUM] | > 46
CN1CC[C@@]23CCCC[C@@H]2[C@@H]1Cc1ccc(O)cc13 [Dextrorphan tartrate] | > 46

Compound | IC50 of cell viability [µM]
C=CCN1CC(C(=O)N(CCCN(C)C)C(=O)NCC)CC2c3cccc4[nH]cc(c34)CC21 (stereo not drawn) [CABERGOLINE] | > 46
C[N@+]1([O-])[C@H]2CC[C@H]1C[C@H](OC(=O)[C@@H](CO)c1ccccc1)C2 [Atropine oxide] | > 46
O=C(CCCN1CCN(c2ccccn2)CC1)c1ccc(F)cc1 [Azaperone] | > 46
C[N+]1(C)[C@@H]2C[C@H](OC(=O)[C@@H](CO)c3ccccc3)C[C@@H]1[C@H]1O[C@H]12 [Proscomide] | > 46
CCCC[C@H]1C(=O)N(c2ccccc2)N(c2ccc(O)cc2)C1=O [Oxyphenbutazone] | > 46
O=C(Nc1ccc(Br)cc1)c1cc(Br)cc(Br)c1O [TRIBROMSALAN] | > 46
COc1cc2nc(N3CCN(C(=O)c4ccco4)CC3)nc(N)c2cc1OC [Prazosin] | > 46
CNCCCC12CCC(c3ccccc31)c1ccccc12 [MAPROTILINE] | > 46
C[C@H]1CCC[C@H](O)CCCCCc2cc(O)cc(O)c2C(=O)O1 [Zearalanol] | > 46
CO/N=C1\CN(c2nc3c(cc2F)c(=O)c(C(=O)O)cn3C2CC2)CC1CN.C[S+](=O)([O-])O (stereo not drawn) [GEMIFLOXACIN MESYLATE] | > 46
Cn1c(=O)c2c(ncn2CC2OCCO2)n(C)c1=O [Doxofylline] | > 46
COc1cc(OC)c(OC)cc1C=O [2,4,5-Trimethoxybenzaldehyde] | > 46
O.O.O.O.O.O.O.O=S(=O)([O-])[O-].[Co+2] [Cobalt sulfate heptahydrate] | > 46
N#C/C(=C1/SC[C@@H](c2ccc(Cl)cc2Cl)S1)n1ccnc1 [Luliconazole] | > 46
Nc1ccc(/N=N/c2ccccc2)c(N)n1 [Fenazopiridina] | > 46
CC1(C)SC2C(NC(=O)C(C(=O)[O-])c3ccccc3)C(=O)N2C1C(=O)[O-].[Na+].[Na+] (stereo not drawn) [CARBENICILLIN DISODIUM] | > 46
Cl/C(=C\n1cncn1)c1ccc(Cl)cc1Cl [Loreclezole hydrochloride] | > 46
CN1CCN=C(c2ccccc2)c2cc(Cl)ccc21 [Medazepam] | > 46
C[C@H](CN1c2ccccc2Sc2cccnc21)N(C)C [ISOTHIPENDYL HYDROCHLORIDE] | > 46
CC1(COc2ccc(CC3SC(=O)NC3=O)cc2)CCCCC1 (stereo not drawn) [Ciglitizone] | > 46
CCCCOCCOCCOCc1cc2c(cc1CCC)OCO2 [Piperonyl butoxide] | > 46
O=C(OC[C@@H](O)CO)c1ccccc1Nc1ccnc2cc(Cl)ccc12 [Glafenine hydrochloride] | > 46
Cc1[nH]cnc1CN1CCc2c(c3ccccc3n2C)C1=O [ALOSETRON HYDROCHLORIDE] | > 46

Compound | IC50 of cell viability [µM]
CN1C2CCC1CC(NC(=O)n1c(=O)[nH]c3ccccc31)C2 (stereo not drawn) [ITASETRON HYDROCHLORIDE HYDRATE] | > 46
CCOc1ccc2nc3cc(N)ccc3c(N)c2c1 [ACRINOL] | > 46
CC(=O)OC1CN2CCC1CC2 (stereo not drawn) [ACECLIDINE] | > 46
CN(C)/C=N/c1c(I)cc(I)c(CCC(=O)O)c1I [IPODATE CALCIUM] | > 46
COc1ccc(CN(CCN(C)C)c2ccccn2)cc1 [MEPYRAMINE] | > 46
CC(C)[N+]1(C)[C@@H]2CC[C@H]1CC(OC(=O)C(CO)c1ccccc1)C2 (stereo partly drawn) [Ipratropium bromide monohydrate] | > 46
COc1ccc(/C=N/NC(=O)c2ccncc2)cc1OC [Verazide] | > 46
CCOC(=O)c1cccnc1 [ETHYL NICOTINATE] | > 46
CO/N=C(/C(=O)N[C@@H]1C(=O)N2C(C(=O)O)=C(CSC(=O)c3ccco3)CSC12)c1csc(N)n1 (stereo partly drawn) [CEFTIOFUR CRYSTALLINE FREE ACID] | > 46
C=C[C@@H]1CN2CC[C@H]1C[C@H]2[C@H](O)c1ccnc2ccccc12 [cinchonine] | > 46
Cc1cc(C)c(NC(=O)C[C@H](CC(=O)[O-])c2cccc3ccccc23)c(C(=O)N2CCC3(CCCC3)CC2)c1.[Na+] [CR 2945] | > 46
O=C(CCN1CCN2CCCC2C1)N1c2ccccc2Sc2ccc(Cl)cc21 (stereo not drawn) [Azaclorzina] | > 46
CCc1cc(OC)c(CC(C)N)cc1OC (single isomer, unassigned; (-)) [(-)-2,5-Dimethoxy-4-ethylamphetamine] | > 46
O=Cc1ccco1 [Furfural] | > 46
CCCCCCCCCCCC(=O)[O][Sn]([CH2]CCC)([CH2]CCC)[O]C(=O)CCCCCCCCCCC [DIBUTYLTIN DILAURATE] | > 46
O=C(NC1N=C(c2ccccc2F)c2cccc3c2N(CC3)C1=O)c1cc2ccccc2[nH]1 (stereo in doubt) | > 46
Nc1ncnc2c1ncn2[C@H]1CC[C@@H](CO)O1 [2',3'-DIDEOXYADENOSINE] | > 46
CC1(C)C(\C=C(/Cl)Cl)C1C(=O)OC(C#N)C2=CC=CC(OC3=CC=CC=C3)=C2 (stereo not drawn) [Cypermethrin] | > 46
Cn1c(=O)c2c(ncn2C[C@@H](O)CO)n(C)c1=O [Diprophylline] | > 46
CN(C)c1cc(NC(=O)CNC(C)(C)C)c(O)c2c1C[C@H]1C[C@H]3[C@H](N(C)C)C(O)=C(C(N)=O)C(=O)[C@]3(O)C(O)=C1C2=O [Tigecycline] | > 46
CC(=O)O[C@H]1CC[C@]\2(C)C3CC[C@@]\4(C)C(C\C=C4C5=CC=CN=C5)C3C\C=C2C1 (stereo partly drawn) [Abiraterone Acetate] | > 46
CO[C@@H]1C[C@H](O[C@H]2[C@H](C)[C@H](O[C@@H]3O[C@@H](C)C[C@@H](N(C)C)[C@H]3OC(C)=O)[C@H](C)C[C@]3(CO3)C(=O)[C@H](C)[C@H](OC(C)=O)[C@H](C)[C@H](C)OC(=O)[C@@H]2C)O[C@H](C)[C@H]1OC(C)=O [Troleandomycin] | > 46
